# Results: PMC5559341 (ACS chemical neuroscience, 2017)
# Legend:
# Experiment in all cases: TEVC electrophysiology, Xenopus oocytes
# Format in all cases: cell-based
# GluN1/2D = GluN1/2D (Rattus norvegicus, UniProt P35439+Q62645)
# GluN1/2C = GluN1/2C (Rattus norvegicus, UniProt P35439+Q00961)
# GluN1/2B = GluN1/2B (Rattus norvegicus, UniProt P35439+Q00960)
# GluN1/2A = GluN1/2A (Rattus norvegicus, UniProt P35439)
EC50 (GluN1/2D),EC50 (GluN1/2C),EC50 (GluN1/2B),EC50 (GluN1/2A),SMILES
> 300 µM,> 300 µM,,,"CCCCSC[C@H](N)C(=O)O [10a, S-Butyl L-cysteine]"
> 300 µM,> 300 µM,,,CCCCC(=O)NC[C@H](N)C(=O)O [13b]
> 300 µM,> 300 µM,> 300 µM,,N[C@@H](COCc1ccccc1)C(=O)O [8b]

# The next lines start with the compound.
SMILES,EC50 (GluN1/2D),EC50 (GluN1/2C),EC50 (GluN1/2B),EC50 (GluN1/2A)
"CCCCSC[C@@H](N)C(=O)O [10b, S-Butyl D-cysteine]",> 300 µM,> 300 µM,> 300 µM,
"N[C@@H](CSCc1ccccc1)C(=O)O [11a, S-benzyl substituted L-cysteine]",> 300 µM,87 µM,,
"CCCCC(=O)NC[C@@H](N)C(=O)O [13a, pentanamido analogue 13a]",> 300 µM,206 µM,> 300 µM,> 300 µM
"N[C@H](CSCc1ccccc1)C(=O)O [11b, S-benzylated D-cysteine]",> 300 µM,> 300 µM,,
